Data published in patent US20240336563A1, “G-ALPHA-S INHIBITORS AND USES THEREOF” (The Regents of the University of California, priority 2021, published 2024).
“Also recorded” adds a separate entry of the source.

Key:
[1] = target: GDP-bound Gαs(R201C/C237S) (Homo sapiens, UniProt P63092, C237S/R201C); assay: Adenylyl cyclase-activating activity of Acr-modified Gαs; assay type: biochemical; conditions: in the presence of GDP and Gβ1/Gγ2(C68S), free Acr removed by gel filtration
Method: (§1) FIGS. 3A-3C show modification of C201 by acrylamide. […] The data represents the mean SE of three independent measurements. […] The data represents the mean±SD of at least three independent measurements.
(§2) Also effect of modifying C201 with Acr on the adenylyl cyclase-activating activity of GDP-bound Gαs(R201C/C237S) was calculated. […] The kcat of Gαs(C237S) is 1.539±0.153 min^−1 (measured at 0° C.), slightly higher than that of WT Gαs (FIG. 3C). […] Following Acr modification of the R201C/C237S mutant its kcat increased to 0.471±0.043 min^−1 (measured at 0° C.), about 30% of that of Gαs(C237S).

Gαs(R201C/C237S) [2] = target: T1, Gαs(R201C/C237S) (Homo sapiens, UniProt P63092, C237S/R201C); assay: Cysteine modification by acrylamidine; assay type: binding; conditions: R201C/C237S double mutant
Description: (§3) The R201C mutation results in the loss of ammonium η1 and η2 of R201 thus freeing E50 to interact with R258 and R265 to indirectly stabilize switch II in an active-like conformation. Based on this finding, replacing the side chain of R201C with a close mimic of native arginine which contains N(η1) and N(η2) may correct the misactivation of the R201C mutant. […] This modification converts cysteine to an arginine mimic (FIG. 3A).

Gαs(R201C) = Gαs(R201C) (Homo sapiens, UniProt P63092, R201C); assay: Cysteine modification by acrylamidine; assay type: binding; conditions: R201C mutant
Description: as §3

Gαs(R201C/C237S) [3] = target: T1, Gαs(R201C/C237S); assay: Single turnover GTPase activity of Acr-modified Gαs; assay type: biochemical
Method: as §1, §2

T1 sequence (P63092 7-380 isoform P63092-2 R187C/C223S limits assumed): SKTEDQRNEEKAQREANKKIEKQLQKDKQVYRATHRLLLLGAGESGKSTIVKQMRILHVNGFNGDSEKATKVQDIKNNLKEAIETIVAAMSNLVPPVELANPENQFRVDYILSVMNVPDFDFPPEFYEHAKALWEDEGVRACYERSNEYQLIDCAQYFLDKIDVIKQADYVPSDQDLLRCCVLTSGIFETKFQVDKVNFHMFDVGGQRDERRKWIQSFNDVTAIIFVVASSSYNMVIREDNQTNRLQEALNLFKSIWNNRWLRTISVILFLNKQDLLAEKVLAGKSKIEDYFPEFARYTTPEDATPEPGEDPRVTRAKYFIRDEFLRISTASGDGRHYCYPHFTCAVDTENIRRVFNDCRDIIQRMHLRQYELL
Sequence of GDP-bound Gαs(R201C/C237S) (P63092 7-380 isoform P63092-2 R187C/C223S limits assumed): as above
Sequence of Gαs(R201C) (P63092 7-380 isoform P63092-2 R187C limits assumed): as the sequence (P63092 7-380 isoform P63092-2 R187C/C223S limits assumed) above, with S217C counted along it

Compound: C=CC(=N)N [Acr, acrylamidine]
- ability of Acr-modified Gαs(R201C/C237S) to activate adenylyl cyclase [1]: lowered to the same level as that of Gαs(C237S); also recorded: decreased
- cysteines modified by Acr (Gαs(R201C/C237S) [2]): only Cys201 can be modified
- cysteines modified by Acr (Gαs(R201C)): can modify Cys237 and Cys201
- single turnover GTPase activity of the R201C/C237S mutant after modification of C201 by Acr (Gαs(R201C/C237S) [3]; FIG. 3C legend): increased the single turnover GTPase activity of the R201C/C237S mutant to a level close to that of the C237S mutant
- kcat after Acr modification relative to that of Gαs(C237S) (Gαs(R201C/C237S) [3]; measured at 0° C.): about 30%
- kcat of R201C/C237S mutant following Acr modification (Gαs(R201C/C237S) [3]; measured at 0° C.): 0.00785 ± 0.000717 s⁻¹
